Tested on: A2058 xenograft tumor model
Test: Human melanoma A2058 cell subcutaneous xenograft tumor model
Type: in vivo
Settings: azvudine 1 mg/kg, dacarbazine 60 mg/kg, combination 1 + 60 mg/kg; for Tumor volume (mm^3) on the 14th day: 14th day of administration
Procedure: Human melanoma cells A2058 (Cat. No.: CRL-11147) were cultured in vitro as a monolayer in DMEM medium containing 10% fetal bovine serum, 100 U/mL penicillin and 100 μg/mL streptomycin, in a 37° C. and 5% CO2 incubator. The cells were routinely digested with trypsin-EDTA and passaged twice a week. When the cell saturation reached 80%-90% and the cell number achieved the requirement, the cells were collected, counted and inoculated.
0.2 mL (5×10^6) of A2058 cells were added with Matrigel, and the mixture was subcutaneously inoculated on the right back of each mouse. The grouping administration was started when the average tumor volume reached about 136 mm^3.

[1] = based on tumor volume, 14th day

## CN(C)/N=N/c1[nH]cnc1C(N)=O [Dacarbazine, dacarbazine]
  Tumor volume (mm^3) on the 14th day: 1,255 ± 186 mm^3
Listed as dacarbazine
  Tumor volume (mm^3) on the 14th day: 1255 mm^3
[1]
  T/C (%): 44.77%
  TGI (%): 56.74%

Reference: patent US12268702B2, “Antitumor pharmaceutical composition comprising azvudine and chemotherapeutic agent” (HENAN GENUINE BIOTECH CO., LTD., priority 2023, dated 2025)
